Molecular target: ATP-binding cassette sub-family C member 2 (Homo sapiens, UniProt Q92887)
Assay: TP_TRANSPORTER: uptake in membrane vesicle from MRP2-expressing MDCKII cells
Assay type: functional, cell membranes
Settings: dog, mdck-ii

Sequence of ATP-binding cassette sub-family C member 2 (Q92887 whole entry): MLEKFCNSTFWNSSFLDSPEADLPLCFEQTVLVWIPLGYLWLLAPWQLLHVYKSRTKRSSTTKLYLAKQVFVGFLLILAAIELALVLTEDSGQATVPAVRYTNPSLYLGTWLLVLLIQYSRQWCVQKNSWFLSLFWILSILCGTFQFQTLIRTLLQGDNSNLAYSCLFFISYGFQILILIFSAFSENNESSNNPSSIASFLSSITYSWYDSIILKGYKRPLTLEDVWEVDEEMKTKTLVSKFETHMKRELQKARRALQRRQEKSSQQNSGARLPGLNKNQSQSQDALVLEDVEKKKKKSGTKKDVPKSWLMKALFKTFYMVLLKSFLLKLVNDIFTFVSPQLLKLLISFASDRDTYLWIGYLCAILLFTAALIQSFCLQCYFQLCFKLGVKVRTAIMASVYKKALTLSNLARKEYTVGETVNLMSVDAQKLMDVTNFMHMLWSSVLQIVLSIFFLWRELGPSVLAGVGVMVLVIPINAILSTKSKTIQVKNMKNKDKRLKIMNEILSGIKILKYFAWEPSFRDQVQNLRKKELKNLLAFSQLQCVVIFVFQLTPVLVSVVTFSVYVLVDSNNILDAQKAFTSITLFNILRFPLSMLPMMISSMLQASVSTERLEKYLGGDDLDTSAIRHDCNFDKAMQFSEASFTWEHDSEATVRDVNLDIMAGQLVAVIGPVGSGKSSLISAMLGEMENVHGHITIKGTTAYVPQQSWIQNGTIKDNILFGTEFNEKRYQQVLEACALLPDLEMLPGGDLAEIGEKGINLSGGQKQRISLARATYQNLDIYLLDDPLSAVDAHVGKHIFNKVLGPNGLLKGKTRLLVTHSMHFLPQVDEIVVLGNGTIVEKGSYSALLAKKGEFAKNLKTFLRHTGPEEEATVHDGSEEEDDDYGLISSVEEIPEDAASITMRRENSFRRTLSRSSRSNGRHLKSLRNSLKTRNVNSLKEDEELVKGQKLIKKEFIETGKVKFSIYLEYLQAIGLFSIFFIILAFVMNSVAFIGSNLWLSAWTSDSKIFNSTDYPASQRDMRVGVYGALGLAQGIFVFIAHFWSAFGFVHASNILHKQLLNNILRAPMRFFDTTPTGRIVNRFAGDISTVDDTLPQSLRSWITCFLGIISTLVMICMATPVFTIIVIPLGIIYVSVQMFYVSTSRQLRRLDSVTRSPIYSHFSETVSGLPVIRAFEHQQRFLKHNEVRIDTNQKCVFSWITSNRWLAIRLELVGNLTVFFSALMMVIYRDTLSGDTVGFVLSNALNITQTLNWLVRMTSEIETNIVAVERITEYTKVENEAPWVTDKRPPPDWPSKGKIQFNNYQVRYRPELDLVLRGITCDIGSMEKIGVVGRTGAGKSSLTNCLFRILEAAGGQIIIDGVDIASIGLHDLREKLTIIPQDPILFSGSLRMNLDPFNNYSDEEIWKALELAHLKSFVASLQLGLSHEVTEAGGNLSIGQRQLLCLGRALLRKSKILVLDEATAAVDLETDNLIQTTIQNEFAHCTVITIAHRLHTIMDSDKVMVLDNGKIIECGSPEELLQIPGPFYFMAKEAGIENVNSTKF

Activity: substrate []
Compound: O=C(O[C@@H]1Cc2c(O)cc(O)cc2O[C@@H]1c1ccc(O)c(O)c1)c1cc(O)c(O)c(O)c1 [EPICATECHIN GALLATE]

Source: ChEMBL document CHEMBL2073900, “Cellular uptake and efflux of the tea flavonoid (-)epicatechin-3-gallate in the human intestinal cell line Caco-2” (J Pharmacol Exp Ther, 2003)
